Assay results taken from patent US20260130851A1, “PLINABULIN MICELLE COMPOSITION AND PREPARATION METHOD THEREFOR” (priority 2022, published 2026).
Converted amounts (≈) assume the structure as drawn. Where two headings read alike, the source gives them in different places.

Assay: Equilibrium solubility of Plinabulin in propylene glycol-D5W diluents (HPLC)
Format: physicochemical
Settings: for Control Group - Absolute Ethanol Test Concentration: 25° C.
Method: Corresponding propylene glycol-D5W injections were prepared. The preparation process was as follows: • Diluent 1 (corresponding to a dilution ratio of 1:20). Weigh about 6 g of propylene glycol, place it in a beaker, add 200 ml of D5W injection, and mix well. • Diluent 2 (corresponding to a dilution ratio of 1:30). Weigh about 4 g of propylene glycol, place it in a beaker, add 200 ml of D5W injection, and mix well. • Diluent 3 (corresponding to a dilution ratio of 1:50): Weigh about 2.4 g of propylene glycol, place it in a beaker, add 200 ml of D5W injection, and mix well.
Acceptance criteria: The concentration of Plinabulin in each solution was determined until there was no significant difference between two consecutive determinations, i.e., equilibrium solubility.
Test solutions were taken at different time points, filtered through a 0.45 μm glass fiber membrane, and injected into the high-performance liquid chromatography system. The equilibrium solubility of Plinabulin in solutions with different ratios at various time points was calculated by the external standard method.

CC(C)(C)c1[nH]cnc1/C=c1\[nH]c(=O)/c(=C/c2ccccc2)[nH]c1=O [Plinabulin, (3Z,6Z)-3-[(5-tert-butyl-1H-imidazol-4-yl)methylene]-6-(phenylmethylene)-2,5-piperazinedione]
Control Group - Absolute Ethanol Test Concentration (Test Sample 1 (49.5 h), Diluent 1 (about 6 g propylene glycol + 200 ml D5W, 1:20), 100 rpm): 0.152 µg/mL
Control Group - Absolute Ethanol Test Concentration (Test Sample 2 (48.5 h), Diluent 2 (about 4 g propylene glycol + 200 ml D5W, 1:30), 100 rpm): 0.125 µg/mL
Control Group - Absolute Ethanol Test Concentration (Test Sample 3 (49 h), Diluent 3 (about 2.4 g propylene glycol + 200 ml D5W, 1:50), 100 rpm): 0.113 µg/mL
solubility thermodynamic at 49.5 h (propylene glycol-D5W diluent, 25 °C, saline or isotonic, thermodynamic from solid, Test Sample 1 (1:20) dilution level, 49.5 h, read-out: Test Concentration (equilibrium solubility)): 0.152 µg/mL (≈ 0.452 µM)
solubility thermodynamic at 72 h (propylene glycol-D5W diluent, 25 °C, saline or isotonic, thermodynamic from solid, Test Sample 1 (1:20) dilution level, 72 h, read-out: Test Concentration (equilibrium solubility)): 0.145 µg/mL (≈ 0.431 µM)
solubility thermodynamic at 94 h (propylene glycol-D5W diluent, 25 °C, saline or isotonic, thermodynamic from solid, Test Sample 1 (1:20) dilution level, 94 h, read-out: Test Concentration (equilibrium solubility)): 0.143 µg/mL (≈ 0.425 µM)
solubility thermodynamic at 49.5 h (propylene glycol-D5W diluent, 25 °C, saline or isotonic, thermodynamic from solid, Test Sample 1 (49.5 h), Diluent 1 (about 6 g propylene glycol + 200 ml D5W, 1:20), 100 rpm, read-out: Control Group - Diluent Test Concentration): 0.155 µg/mL
solubility thermodynamic at 48.5 h (propylene glycol-D5W diluent, 25 °C, saline or isotonic, thermodynamic from solid, Test Sample 2 (1:30) dilution level, 48.5 h, read-out: Test Concentration (equilibrium solubility)): 0.125 µg/mL (≈ 0.372 µM)
solubility thermodynamic at 73 h (propylene glycol-D5W diluent, 25 °C, saline or isotonic, thermodynamic from solid, Test Sample 2 (1:30) dilution level, 73 h, read-out: Test Concentration (equilibrium solubility)): 0.112 µg/mL (≈ 0.333 µM)
solubility thermodynamic at 94.5 h (propylene glycol-D5W diluent, 25 °C, saline or isotonic, thermodynamic from solid, Test Sample 2 (1:30) dilution level, 94.5 h, read-out: Test Concentration (equilibrium solubility)): 0.113 µg/mL (≈ 0.336 µM)
solubility thermodynamic at 48.5 h (propylene glycol-D5W diluent, 25 °C, saline or isotonic, thermodynamic from solid, Test Sample 2 (48.5 h), Diluent 2 (about 4 g propylene glycol + 200 ml D5W, 1:30), 100 rpm, read-out: Control Group - Diluent Test Concentration): 0.13 µg/mL
solubility thermodynamic at 49 h (propylene glycol-D5W diluent, 25 °C, saline or isotonic, thermodynamic from solid, Test Sample 3 (1:50) dilution level, 49 h, read-out: Test Concentration (equilibrium solubility)): 0.113 µg/mL (≈ 0.336 µM)
solubility thermodynamic at 73.5 h (propylene glycol-D5W diluent, 25 °C, saline or isotonic, thermodynamic from solid, Test Sample 3 (1:50) dilution level, 73.5 h, read-out: Test Concentration (equilibrium solubility)): 0.095 µg/mL (≈ 0.282 µM)
solubility thermodynamic at 96 h (propylene glycol-D5W diluent, 25 °C, saline or isotonic, thermodynamic from solid, Test Sample 3 (1:50) dilution level, 96 h, read-out: Test Concentration (equilibrium solubility)): 0.134 µg/mL (≈ 0.398 µM)
solubility thermodynamic at 120 h (propylene glycol-D5W diluent, 25 °C, saline or isotonic, thermodynamic from solid, Test Sample 3 (1:50) dilution level, 120 h, read-out: Test Concentration (equilibrium solubility)): 0.135 µg/mL (≈ 0.401 µM)
solubility thermodynamic at 49 h (propylene glycol-D5W diluent, 25 °C, saline or isotonic, thermodynamic from solid, Test Sample 3 (49 h), Diluent 3 (about 2.4 g propylene glycol + 200 ml D5W, 1:50), 100 rpm, read-out: Control Group - Diluent Test Concentration): 0.117 µg/mL
